The source of these data is PubChem BioAssay (NCI).

Among the test systems are A498 renal; CAKI-1 renal; UACC-257 melanoma; MCF7 breast; SF-268 CNS; SNB-19 CNS; COLO 205 colon; HS 578T breast; UACC-62 melanoma; A549 NSCLC.
Holding throughout (assay): DTP human tumour cell line panel, 48 h

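Grown in 96-well plates, cells were treated for 48 hours with each compound at five concentrations. Insufficient inhibition: endpoint recorded as highest concentration tested. Here, GI50 denotes the concentration required for 50% inhibition of growth. TGI: concentration producing complete growth inhibition.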 A value given as a limit tells only on which side of the number the result lay.

As to `Cc1c(N2C(=O)/C(=C\c3ccc(O)cc3)N=C2c2ccccc2)c(=O)n(-c2ccccc2)n1C`, the GI50 in the experiment with A498 renal, in the experiment with CAKI-1 renal, in the experiment on UACC-257 melanoma, in the experiment on MCF7 breast, in the experiment with SF-268 CNS and in the experiment on SNB-19 CNS was over 100 µM throughout. Besides, the GI50 with COLO 205 colon, with HS 578T breast, in the experiment on UACC-62 melanoma and with A549 NSCLC was over 100 µM throughout. Further, the TGI in the experiment with A498 renal, in the experiment with CAKI-1 renal, in the experiment with UACC-257 melanoma, in the experiment with MCF7 breast, in the experiment with SF-268 CNS and in the experiment with SNB-19 CNS was over 100 µM in each case. The TGI in the experiment with COLO 205 colon, in the experiment on HS 578T breast, with UACC-62 melanoma and in the experiment on A549 NSCLC was over 100 µM in each case.

`BrP(NC1CCCCCC1)(c1ccccc1)(c1ccccc1)c1ccccc1`: the TGI with A498 renal is 7.26 µM; with CAKI-1 renal, 13 µM; with UACC-257 melanoma it was 6.3 µM; in the experiment with MCF7 breast, 6.26 µM; in the experiment with SF-268 CNS it was 11.1 µM; in the experiment on SNB-19 CNS it was 16.8 µM. Moreover, the TGI with COLO 205 colon amounted to 5.4 µM; in the experiment with HS 578T breast, 12.4 µM; in the experiment with UACC-62 melanoma, 15.9 µM; in the experiment with A549 NSCLC, 25.8 µM.

For the molecule `COC(=O)Nc1nc2c(OC)c(OC)c(OC)cc2[nH]1`, the GI50 in the experiment on A498 renal is 25.5 µM; in the experiment on CAKI-1 renal, 15.7 µM; with UACC-257 melanoma, over 100 µM; in the experiment with MCF7 breast, 9.38 µM; in the experiment with SF-268 CNS, 59.2 µM; in the experiment on SNB-19 CNS, 45.7 µM. Moreover, the GI50 with COLO 205 colon was 7.33 µM; in the experiment with HS 578T breast it was 30 µM; with UACC-62 melanoma, 13.3 µM; in the experiment on A549 NSCLC, 14.8 µM. Besides, the TGI in the experiment on A498 renal, in the experiment with CAKI-1 renal, with UACC-257 melanoma, in the experiment on MCF7 breast, with SF-268 CNS and with SNB-19 CNS was over 100 µM throughout. Moreover, the concentration for total growth inhibition (TGI) is 64.7 µM in the experiment on COLO 205 colon, over 92.3 µM with HS 578T breast, over 100 µM in the experiment with UACC-62 melanoma and over 100 µM with A549 NSCLC.

Turning to `O=C(Cc1ccccc1)Nc1nnc(CCSCCc2nnc(NC(=O)Cc3ccccc3)s2)s1`, the GI50 in the experiment on A498 renal is 0.696 µM; in the experiment on CAKI-1 renal, 11.7 µM; in the experiment with UACC-257 melanoma, over 100 µM; with MCF7 breast, 32.6 µM; with SF-268 CNS, 12.3 µM; in the experiment with SNB-19 CNS it was 11.2 µM. Moreover, the GI50 with COLO 205 colon was over 100 µM; in the experiment on HS 578T breast, 1.93 µM; in the experiment on UACC-62 melanoma it was 19.2 µM; with A549 NSCLC it was 0.541 µM. Further, the total growth inhibition concentration (TGI) was 31.9 µM in the experiment with A498 renal; 66 µM in the experiment on CAKI-1 renal; over 100 µM with UACC-257 melanoma; over 100 µM with MCF7 breast; 62 µM with SF-268 CNS; 33.3 µM in the experiment with SNB-19 CNS. The concentration for total growth inhibition (TGI) with COLO 205 colon is over 100 µM; with HS 578T breast it was 79.9 µM; with UACC-62 melanoma it was over 100 µM; in the experiment on A549 NSCLC, over 100 µM.

Take `c1ccc(Cn2cc3c(c2)-c2oncc2CC3)cc1`: the GI50 was 3.43 µM in the experiment with A498 renal; 1.97 µM in the experiment with CAKI-1 renal; 22.7 µM with UACC-257 melanoma; 0.349 µM in the experiment with MCF7 breast; 1.78 µM in the experiment with SF-268 CNS; 1.27 µM with SNB-19 CNS. For the same molecule, the GI50 was 0.467 µM with COLO 205 colon, 0.887 µM in the experiment on HS 578T breast, 0.723 µM in the experiment on UACC-62 melanoma and 1.48 µM in the experiment with A549 NSCLC. Moreover, the TGI with A498 renal is over 92.1 µM; with CAKI-1 renal, over 76.3 µM; in the experiment on UACC-257 melanoma, 98.5 µM; in the experiment with MCF7 breast it was over 100 µM; in the experiment on SF-268 CNS, 38.9 µM; in the experiment with SNB-19 CNS, over 100 µM. Moreover, the TGI worked out at 2.55 µM in the experiment with COLO 205 colon, 10.7 µM in the experiment with HS 578T breast, 97.3 µM in the experiment on UACC-62 melanoma and 97.7 µM with A549 NSCLC.

`COc1ccc(/C=C/c2nc(N3CCOCC3)c3cc(F)c(F)cc3n2)cc1OC`: the GI50 is 3.41 µM in the experiment with A498 renal; 3.23 µM in the experiment with CAKI-1 renal; 4.41 µM in the experiment with UACC-257 melanoma; 2.54 µM in the experiment on MCF7 breast; 9.85 µM in the experiment with SF-268 CNS; 5.2 µM in the experiment with SNB-19 CNS. The GI50 in the experiment with COLO 205 colon is 3.47 µM; in the experiment with HS 578T breast, 54.8 µM; in the experiment on UACC-62 melanoma, 3.55 µM; with A549 NSCLC, 5.87 µM. Also, the concentration for total growth inhibition (TGI) in the experiment on A498 renal, in the experiment with CAKI-1 renal, in the experiment on UACC-257 melanoma, in the experiment on MCF7 breast, in the experiment with SF-268 CNS and with SNB-19 CNS was over 100 µM in each case. Moreover, the concentration for total growth inhibition (TGI) is 20.7 µM in the experiment on COLO 205 colon, over 100 µM with HS 578T breast, over 100 µM in the experiment on UACC-62 melanoma and over 100 µM in the experiment on A549 NSCLC.

For `COc1cc(C(=O)/C=C/c2c(-c3ccc(F)cc3)nc3sccn23)cc(OC)c1OC`, the GI50 with A498 renal is 2.35 µM; with CAKI-1 renal, 0.405 µM; in the experiment with UACC-257 melanoma it was 14.1 µM; with MCF7 breast, 1.9 µM; in the experiment on SF-268 CNS it was 2.37 µM; in the experiment on SNB-19 CNS, 3.37 µM. The GI50 in the experiment with COLO 205 colon was 2.27 µM; with HS 578T breast, 2.05 µM; in the experiment with UACC-62 melanoma, 2.28 µM; with A549 NSCLC, 2.54 µM. The total growth inhibition concentration (TGI) in the experiment on A498 renal was 6.16 µM; in the experiment with CAKI-1 renal it was over 30 µM; in the experiment with UACC-257 melanoma, 33.7 µM; in the experiment with MCF7 breast, 7.88 µM; in the experiment on SF-268 CNS, 7.36 µM; in the experiment on SNB-19 CNS, 27.8 µM. The TGI is 6.98 µM with COLO 205 colon, 6.44 µM with HS 578T breast, 13.9 µM in the experiment with UACC-62 melanoma and over 21.1 µM in the experiment on A549 NSCLC.

As to `OC(COc1ccc(Cl)cc1Cl)CN1CCCC1` (stereo not given), the TGI with A498 renal is over 100 µM; with CAKI-1 renal, over 100 µM; in the experiment on UACC-257 melanoma, 60.2 µM; in the experiment with MCF7 breast, over 100 µM; in the experiment with SF-268 CNS, over 100 µM; in the experiment on SNB-19 CNS, over 100 µM. For the same molecule, the TGI in the experiment on COLO 205 colon was over 100 µM; with HS 578T breast it was over 100 µM; with UACC-62 melanoma, 50.1 µM; in the experiment with A549 NSCLC, over 100 µM.
